# Measured values: patent publication US20090041820A1, “Functional polymer compositions” (priority 2007, published 2009)
# How the values were obtained:
# [1] = Solubility of triclosan in PAO carrier fluid; assay type: physicochemical; conditions: PAO without ester
# [2] = PAO/ester/triclosan migration from PP strips (weight loss, toluene wash, surface observation); assay type: physicochemical; conditions: fast cooled PP strips
# Procedure: Preparation of sample 24892-114-0 to 7: The polypropylene described above (85% by weight) was melt blended in a mixer with 15 wt % triclosan stock solution as prepared in Table 2. The mixed polymer was then compression molded into 4″×4″ squares with less than 1 mm thickness. Two methods were used to prepare the PP strip with very different results. One method includes fast cooling after the compression molding (quench sample with a 7° C. cooling surface). The sample strip had PAO fluid on surface indicating fast PAO migration after a few hours at room temperature. The other method included slow cooling after the compression molding (cool sample in ambient air, 23° C.). Sample strip appeared very dry with no apparent PAO fluid on surface. When this sample was put into 70° C. oven, slight oiliness was observed on the surface.
# Table 4 below depicts the PAO/ester/Triclosan migration from the PP strips as measured by weight loss in 7 days.
# For fast cooled PP strips, there was up to 1.8 wt % weight loss by toluene wash due to PAO/ester/Triclosan migration to the surface.
compound,measurement,setting,value
Oc1cc(Cl)ccc1Oc1ccc(Cl)cc1Cl [Triclosan],solubility in PAO alone,[1],low solubility
same,"migration to the surface, confirmed by GC analysis of the toluene wash",[2],migrated to the surface
